Laboratory results published in PMC6906431, “Selective small molecule PARG inhibitor causes replication fork stalling and cancer cell death” (Nature Communications, 2019).
Read-outs that look alike come from different tables or passages of the source.

Legend:
[1] = Sulforhodamine B (SRB) cytotoxicity assay; conditions: human, PC3 cells, Viability, without IR
PC3 cells = assay: Sulforhodamine B (SRB) cytotoxicity assay; conditions: Homo sapiens, PC-3, 72 h, without IR
[2] = Sulforhodamine B (SRB) cytotoxicity assay; type: cell-based, human; conditions: human, MRC-5 cells
Description: (§1) Fig. 6 Selective inhibition of PARG by xanthine derivative JA2131. a Clonogenic survival assays of PC3, MDA-MB-231, and MCF-7 cells treated with PARGi. Cells were treated with either DMSO or 10 µM JA2131 for 2 h, irradiated with 3 Gy (MDA-MB-231 and MCF-7), 7 Gy (PC3) IR and grown for ~2 weeks, then colonies were fixed with methanol and stained with crystal violet. The results of three independent experiments are shown. Error bars = the standard error of the mean (SEM). b dose-response of JA2131 in MDA-MB-231 cells with and without IR. Cells were treated with designated concentrations of JA2131 for 2 h and then either left untreated or exposed to 3 Gy IR and allowed to recover for 1 h before lysis. Total protein was immunoblotted with anti-PAR antibody (upper panel), stripped and reprobed with anti-PCNA as a loading control. c MDA-MB-231 cells with stable scrambled shRNA (WT) or stable PARG shRNA, knockdown (KD), were treated with 5 μM JA2131 for 2 h, lysed and then total lysates were immunoblotted for anti-PAR (upper panel) followed by anti-PARG (upper middle panel), anti-PARP1 (lower middle panel) and anti-actin (bottom panel) antibody. […] Stable cells with scramble shRNA (control) and shPARG (PARG-KD) cells were treated with an increasing concentration of JA2131 for growth inhibitory IC50 determination. The data was normalized against 100% survival at the lowest inhibitor concentration. Error bars show the percent coefficient of variation. Equivalent concentrations of DMSO were used as a negative control. e The cytotoxicity of JA2131 along with PDD, Veliparib and Doxorubicin against MRC-5 cells. Error bars show the percent coefficient of variation. f CETSA for in-cell JA2131 target engagement. Normalized anti-PARG western blot intensities of three independent experiments were fitted as above and the estimated aggregation temperature (Tagg) is shown in the tabulated insert. Source Data are provided as a Source Data file.

MRC-5 cells = assay: Sulforhodamine B (SRB) cytotoxicity assay; type: cell-based, human; conditions: Homo sapiens, MRC5, 72 h
Description: as §1

PARG = conditions: cited from earlier work

COc1cccc2c1C(=O)c1c(O)c3c(c(O)c1C2=O)C[C@@](O)(C(=O)CO)C[C@@H]3O[C@H]1C[C@H](N)[C@H](O)[C@H](C)O1 [Doxorubicin]
viability at 72 h, 1.56 µM ([1]; log [concentration] μM 0.194): 17.2%
viability at 72 h, 3.13 µM ([1]; log [concentration] μM 0.495): 11.1%
viability at 72 h, 6.25 µM ([1]; log [concentration] μM 0.796): 10.1%
viability at 72 h, 12.5 µM ([1]; log [concentration] μM 1.097): 9.95%
viability at 72 h, 25 µM ([1]; log [concentration] μM 1.398): 9.74%
viability at 72 h, 50 µM ([1]; log [concentration] μM 1.699): 9.95%
viability at 72 h, 100 µM ([1]; log [concentration] μM 2): 10.6%
viability at 72 h, 200 µM ([1]; log [concentration] μM 2.301): 13.8%
viability at 72 h, 0.78 µM ([1]; log [concentration] μM -0.107): 58.5%
viability at 72 h, 0.39 µM ([1]; log [concentration] μM -0.408): 95%
viability at 72 h, 0.098 µM ([1]; log [concentration] μM -1.009): 100%
IC50 (PC3 cells): 810 ± 300 nM
viability at 72 h, 1.55 µM ([2]; log [concentration] μM 0.19): 50.4%
viability at 72 h, 3.09 µM ([2]; log [concentration] μM 0.49): 47.4%
viability at 72 h, 6.31 µM ([2]; log [concentration] μM 0.8): 50%
viability at 72 h, 12.6 µM ([2]; log [concentration] μM 1.1): 50%
viability at 72 h, 25.1 µM ([2]; log [concentration] μM 1.4): 45.6%
viability at 72 h, 0.776 µM ([2]; log [concentration] μM -0.11): 71.7%
viability at 72 h, 0.389 µM ([2]; log [concentration] μM -0.41): 96.5%
viability at 72 h, 0.195 µM ([2]; log [concentration] μM -0.71): 100%
IC50 (MRC-5 cells): 741 ± 100 nM

O=C(OC[C@H]1O[C@@H](OC(=O)c2cc(O)c(O)c(OC(=O)c3cc(O)c(O)c(O)c3)c2)[C@H](OC(=O)c2cc(O)c(O)c(OC(=O)c3cc(O)c(O)c(O)c3)c2)[C@@H](OC(=O)c2cc(O)c(O)c(OC(=O)c3cc(O)c(O)c(O)c3)c2)[C@@H]1OC(=O)c1cc(O)c(O)c(OC(=O)c2cc(O)c(O)c(O)c2)c1)c1cc(O)c(O)c(OC(=O)c2cc(O)c(O)c(O)c2)c1 [Gallotannin]
IC50 (PARG; read-out: IC50): < 5000 nM

Nc1ncnc2c1ncn2[C@@H]1O[C@H](CO[P@](=O)(O)O[P@@](=O)(O)OC[C@H]2NC[C@H](O)[C@@H]2O)[C@@H](O)[C@H]1O [ADP-HPD, adenosine diphosphate (hydroxymethyl)pyrrolidinediol, reference compound]
IC50 (PARG; read-out: IC50, published values): 100 to 1400 nM
